Data reported in PMC7582905, “Effect of Disulfide Cyclization of Ultrashort Cationic Lipopeptides on Antimicrobial Activity and Cytotoxicity” (International Journal of Molecular Sciences, 2020).
Read-outs that look alike come from different tables or passages of the source. Where a SMILES comes first, the peptide text is derived from it. Bridges are numbered along the chain shown (N, C = ends). The star is where a group is joined. Palmitoyl = CCCCCCCCCCCCCCCC(=O)*

Key:
[1] = test system: human red blood cells (hRBCs); assay: Hemolysis assay; type: cell-based; details: peptide concentration causing 50% hemolysis; 4% (v/v) hRBCs in PBS, 1 h, 37 °C, absorbance 540 nm, triplicate
Method: The hemolysis assay was performed by using the method reported previously. Fresh human red blood cells (hRBCs) with anticoagulant (EDTA) were rinsed three times with a PBS by centrifugation at 800× g for 10 min and diluted with PBS. The lipopeptides were serially diluted on a 96-well microtiter polystyrene plate and hRBCs were added up to a final volume of 100 μL. The peptide concentration ranged between 0.5 and 256 μg/mL and the final hRBCs concentration was 4% (v/v). Controls for zero hemolysis (blank) and 100% hemolysis consisted of hRBCs suspended in PBS and 1% of Triton-X 100, respectively. The plate was incubated for 1 h at 37 °C and then centrifuged (800× g, 10 min, 4 °C). Subsequently, the supernatant was […] to new microtiter plates and the absorbance at 540 nm was measured. All experiments were conducted in triplicate. HC50 was calculated using an ic50.tk tool. Protocol of the study received approval from the local Bioethics Committee at the Medical University of Gdańsk (NKBBN/262/2019, approval date: 10 June 2019).

[2] = test system: Candida lipolytica PCM 2680-FY; type: cell-based
Method: (§1) The Staphylococcus aureus ATCC 25923, Staphylococcus epidermidis ATCC 14990, Escherichia coli ATCC 25922, Pseudomonas aeruginosa ATCC 9027, Candida albicans ATCC 10231, Candida glabrata ATCC 15126, Candida lipolytica PCM 2680-FY, and Candida tropicalis PCM 2709-FY strains were acquired from the Polish Collection of Microorganisms (PCM, Polish Academy of Sciences, Wrocław, Poland) and from the American Type Culture Collection (ATCC). All the strains were stored at −80 °C in Roti-Store cryo vials and before the tests were transferred into fresh Mueller–Hinton broth (MHB, Biocorp, Warsaw, Poland) for bacteria or RPMI-1640 (Sigma-Aldrich, Steinheim, Germany) for fungi and incubated for 24 h at 37 °C. Then, the cultures were seeded on Mueller–Hinton agar (BioMaxima, Lublin, Poland) or Sabouraud dextrose agar (SDA, BioMaxima, Lublin, Poland) plates, respectively, and incubated as just mentioned. These agar cultures were used for further microbiological assays. Cell densities for all assays were adjusted spectrophotometrically (Multiskan GO Microplate Spectrophotometer, Thermo Fisher Scientific, Vantaa, Finland) at 600 and 660 nm for bacteria and fungi, respectively.
(§2) The assay was performed to evaluate the effect of the lipopeptides in preventing biofilm formation. The preparation of inoculums was followed by a ca. 500-fold dilution of the 24 h cultures of microorganisms. Briefly, 50 μL of the compounds in the concentration range, diluted in appropriate medium, were prepared on 96-well polystyrene flat-bottom plates. Subsequently, the 50 μL of the bacterial/fungal inoculums were added to reach the same microbial density as that in the MBEC assay. After 24 h of incubation at 37 °C, the wells were rinsed three times with PBS and the fresh media with resazurin (4 g/L) were added. The MBICs were read after 1 h. All experiments were conducted in triplicate.

[3] = test system: Escherichia coli ATCC 25922; type: cell-based
Method: as §1, §2

[4] = test system: Candida glabrata ATCC 15126; type: cell-based
Method: as §1, §2

[5] = test system: Staphylococcus epidermidis ATCC 14990; type: cell-based
Method: as §1, §2

[6] = test system: Pseudomonas aeruginosa ATCC 9027; type: cell-based
Method: as §1, §2

[7] = test system: Candida albicans ATCC 10231; type: cell-based
Method: as §1, §2

[8] = test system: Candida tropicalis PCM 2709-FY; type: cell-based
Method: as §1, §2

[9] = test system: Staphylococcus aureus ATCC 25923; type: cell-based
Method: as §1, §2

[10] = RP-HPLC determination of peptide hydrophobicity; type: physicochemical; details: 0.1% TFA; for reduced retention time t’R: RP-HPLC retention as measure of hydrophobicity, Waters X-Bridge Shield RP-18 3.0 × 100 mm, 3.5 μm, linear 20–65% acetonitrile in water over 30 min, 0.5 mL/min, 25.0 °C, UV 214 nm, 1 g/L, triplicate; for ∆tR: tR of cyclic analog − tR of parent lipopeptide, RP-HPLC, RP-18, 20–65% acetonitrile over 30 min
Method: The peptides were analyzed by RP-HPLC to determine relative hydrophobicity vs. retention time of each compound. In general, more hydrophobic lipopeptides will elute later than hydrophilic ones. Using this simple rule enables comparison of hydrophobicity by reduced retention times (t’R) and differences in retention time between the cyclic analog and its linear parent lipopeptide (Table 1). It can be deduced that the presence of cystine moiety has led to increased hydrophobicity. All cyclic lipopeptides are more hydrophobic than their linear counterparts but the effect of disulfide cyclization on retention is different in each pair. The highest increase in retention was noticed for the shortest lipopeptides L1 (C16-KKK-NH2) and C1 (C16-CKKKC-NH2). The differences between lipopeptides with one arginine residue indicate that its position is crucial for retention and therefore hydrophobicity. To learn how the arginine position affects hydrophobicity, the retention time of compound L2 (C16-KKKK-NH2) or C2 (C16-CKKKKC-NH2) was subtracted from that of the lipopeptides with one arginine residue, linear (L3, L4, L5, L6) or cyclic (C3, C4, C5, C6), respectively. In Figure 2 the effect of arginine position on retention time is related to unsubstituted lipopeptide.
To determine peptide hydrophobicity, a Waters Alliance e2695 system with a Waters 2998 PDA Detector (software-Empower 3, Waters, Milford, MA, USA) was used. All analyses were carried out on a Waters X-Bridge Shield RP-18 column (3.0 × 100 mm, 3.5 μm particle size, 130 Å pore size). The Shield Technology column with embedded polar groups was used to minimize interactions of unreacted silanol groups with basic lipopeptides. The peptides were dissolved in water (0.1% TFA, v/v) up to a concentration of 1 g/L. UV detection at 214 nm was used, and samples (10 μL) were eluted with a linear 20–65% acetonitrile gradient in deionized water over 30 min at 25.0 ± 0.1 °C. The mobile phase flow rate was 0.5 mL/min. Both eluents contained 0.1% (v/v) of TFA. Each peptide sample was analyzed in triplicate. Maximum standard deviation and coefficient of variation were 0.042 and 0.25%, respectively.

[11] = prevention of biofilm formation on polystyrene plates, 24 h at 37 °C, resazurin, triplicate

SMILES | HC50 [1] [µg/mL] | MBIC C. lipolytica ([2]; 24 h) [µg/mL] | MBIC E. coli ([3]; ATCC 25922, 24 h) [µg/mL] | MBIC C. glabrata ([4]; ATCC 15126, 24 h) [µg/mL] | MBIC S. epidermidis ([5]; ATCC 14990, 24 h) [µg/mL] | MBIC P. aeruginosa ([6]; ATCC 9027, 24 h) [µg/mL] | MBIC C. albicans ([7]; ATCC 10231, 24 h) [µg/mL] | MBIC C. tropicalis ([8]; PCM 2709-FY, 24 h) [µg/mL] | MBIC S. aureus ([9]; ATCC 25923, 24 h) [µg/mL] | reduced retention time t’R [10] [min] | ∆tR [10] | MBIC C. lipolytica [2, 11] [µg/mL] | MBIC E. coli [3, 11] [µg/mL] | MBIC C. glabrata [4, 11] [µg/mL] | MBIC S. epidermidis [5, 11] [µg/mL] | MBIC P. aeruginosa [6, 11] [µg/mL] | MBIC C. albicans [7, 11] [µg/mL] | MBIC C. tropicalis [8, 11] [µg/mL] | MBIC S. aureus [9, 11] [µg/mL]
CCCCCCCCCCCCCCCC(=O)N[C@H]1CSSC[C@@H](C(N)=O)NC(=O)[C@H](CCCCN)NC(=O)[C@H](CCCCN)NC(=O)[C@H](CCCCN)NC1=O [C1, C16-CKKKC-NH2] (Palmitoyl-CKKKC-NH2; disulfide 1-5) | 43.9 ± 3.5 | 16 | 64 | 32 | 16 | 128 | 32 | 32 | 16 | 18.05 | +1.91 min |  |  |  |  |  |  |  | 
CCCCCCCCCCCCCCCC(=O)N[C@H]1CSSC[C@@H](C(N)=O)NC(=O)[C@H](CCCCN)NC(=O)[C@H](CCCCN)NC(=O)[C@H](CCCCN)NC(=O)[C@H](CCCCN)NC1=O [C2, C16-CKKKKC-NH2] (Palmitoyl-CKKKKC-NH2; disulfide 1-6) | 30.6 ± 1.1 |  |  |  |  |  |  |  |  | 15.95 | +1.18 min | 8 | 32 | 32 | 4 | 64 | 16 | 8 | 16
CCCCCCCCCCCCCCCC(=O)N[C@H]1CSSC[C@@H](C(N)=O)NC(=O)[C@H](CCCCN)NC(=O)[C@H](CCCCN)NC(=O)[C@H](CCCCN)NC(=O)[C@H](CCCNC(=N)N)NC1=O [C3, C16-CRKKKC-NH2] (Palmitoyl-CRKKKC-NH2; disulfide 1-6) | 66.5 ± 14.8 | 2 | 64 | 8 | 8 | 64 | 8 | 4 | 16 | 16.51 | +1.30 min |  |  |  |  |  |  |  | 
CCCCCCCCCCCCCCCC(=O)N[C@H]1CSSC[C@@H](C(N)=O)NC(=O)[C@H](CCCCN)NC(=O)[C@H](CCCCN)NC(=O)[C@H](CCCNC(=N)N)NC(=O)[C@H](CCCCN)NC1=O [C4, C16-CKRKKC-NH2] (Palmitoyl-CKRKKC-NH2; disulfide 1-6) | 122.4 ± 16.5 | 4 | 32 | 16 | 8 | 32 | 8 | 4 | 16 | 16.10 | +0.92 min |  |  |  |  |  |  |  | 
